The text below walks through data of US11053226B2, “KRAS G12C inhibitors and methods of using the same” (Amgen Inc., priority 2018, dated 2021).

Like-named read-outs stand apart in the source and are kept apart here.

Assay [1] addresses GDP-bound KRAS protein (aa 1-169), containing both G12C and C118A amino acid substitutions (Homo sapiens (Human), UniProt P01116, C118A/G12C). Briefly: Coupled Nucleotide Exchange Assay. In kind it is biochemical. Here is the method:
(§1) For compounds in Table 9, the following assay conditions were employed:
Coupled Nucleotide Exchange Assay:
The assay plates were then read on a PerkinElmer EnVision Multilabel Reader, using AlphaScreen® technology, and data were analyzed using a 4-parameter logistic model to calculate IC50 values.

In assay [2] the test system is Phosphorylation of ERK1/2 in A549 cells. Briefly: Phospho-ERK1/2 MSD Assay (A549). The assay is classed as cell-based.
Assay [3] concerns Phosphorylation of ERK1/2 in MIA PaCa-2 cells. Briefly: Phospho-ERK1/2 MSD Assay. In kind it is cell-based. Conditions: MiaPaCa-2 cells. Here is the method: as §1
Phospho-ERK1/2 MSD Assay:
Sixteen hours prior to compound treatment, MIA PaCa-2 cells were seeded in 96-well cell culture plates at a density of 25,000 cells/well and incubated at 37° C., 5% CO2. […] Following compound treatment, cells were stimulated with 10 ng/mL EGF (Roche 11376454001) for 10 min, washed with ice-cold Dulbecco's phosphate-buffered saline, no Ca^2+ or Mg^2+ (ThermoFisher Scientific 14190144), and then lysed in RIPA buffer (50 mM Tris-HCl pH 7.5, 1% Igepal, 0.5% sodium deoxycholate, 150 mM NaCl, and 0.5% sodium dodecyl sulfate) containing protease inhibitors (Roche 4693132001) and phosphatase inhibitors (Roche 4906837001). […] Assay plates were read on a Meso Scale Discovery Sector Imager 6000, and data were analyzed using a 4-parameter logistic model to calculate IC50 values.

[4] abbreviates: read-out: Coupled Exchange IC50 (2 h), 2 h compound pre-incubation.
The mark [5] stands for this setting: Homo sapiens, A549, 4 h, read-out: pERK IC50 (4 h, A549), 4 h compound treatment.
[6] abbreviates: Homo sapiens, MIA PaCa-2, 4 h, read-out: pERK IC50 (4 h, MiaPaCa-2), 4 h compound treatment.
Where [7] appears, read: read-out: pERK IC50 (4 h, MiaPaCa-2), 4 h compound treatment.
The mark [8] stands for this setting: read-out: Coupled Exchange IC50 (5 min), 5 min compound pre-incubation.
The mark [9] stands for this setting: read-out: Coupled Exchange IC50 (20 h), 20 h compound pre-incubation.
Where [10] appears, read: Homo sapiens, read-out: pERK IC50 (4 h), 4 h compound treatment.
[11] abbreviates: Homo sapiens, MIA PaCa-2, read-out: pERK IC50 (4 h), 4 h compound treatment.

By IC50 is commonly meant the concentration at which inhibition is half-maximal.

Sequence of GDP-bound KRAS protein (aa 1-169), containing both G12C and C118A amino acid substitutions (P01116 other isoform, or with tags, fused parts or gaps G12C/C118A): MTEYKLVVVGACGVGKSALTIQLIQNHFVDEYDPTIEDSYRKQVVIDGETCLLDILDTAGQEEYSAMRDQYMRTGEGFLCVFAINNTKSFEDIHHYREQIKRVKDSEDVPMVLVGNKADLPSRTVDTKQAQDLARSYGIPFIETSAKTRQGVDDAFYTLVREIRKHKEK

For the molecule `C=CC(=O)N1CC(N(C)C(=O)Cn2c(CC)c(C(=O)N3CCc4c(cccc4OC)C3)c3cc(Cl)cc(C)c32)C1` [Example 4-2, 2-(5-Chloro-2-ethyl-3-((5-methoxy-3,4-dihydro-2(1H)-isoquinolinyl)carbonyl)-7-methyl-1H-indol-1-yl)-N-methyl-N-(1-(2-propenoyl)-3-azetidinyl)acetamide], the IC50 in assay [1] (setting [4]) was 150 nM; in assay [2] (setting [5]), more than 100 µM; in assay [3] (setting [6]), 210 nM.

With `C=CC(=O)N1CC(NC(=O)Cn2c(C3CC3)c(C(=O)N3CCCC(C)(C)C3)c3cc(Cl)cc(C)c32)C1` [Example 11], the IC50 came out at 660 nM in assay [1] (setting [4]), 36.4 µM in assay [2] (setting [5]) and 1600 nM in assay [3] (setting [6]).

As to `C=CC(=O)N1CC(NC(=O)Cn2c(C)c(C(=O)N3CCc4ccccc4[C@H]3C)c3cc(Br)cc(C)c32)C1` [Example 2-2-1, 2-(5-Bromo-2,7-dimethyl-3-(((1R)-1-methyl-3,4-dihydro-2(1H)-isoquinolinyl)carbonyl)-1H-indol-1-yl)-N-(1-(2-propenoyl)-3-azetidinyl)acetamide], the IC50 in assay [1] (setting [4]) was determined as 160 nM; in assay [2] (read-out: pERK IC50 (4 h, A549), 4 h compound treatment) it was 47 µM; in assay [3] (setting [7]) it was 560 nM.

As for `C=CC(=O)N1CC(NC(=O)Cn2c(C)c(C(=O)N3[C@H](C)c4ccc(F)cc4C[C@@H]3C)c3cc(Br)cc(C)c32)C1` [Example 9], the IC50 is 200 nM in assay [1] (setting [4]), 41.6 µM in assay [2] (setting [5]) and 1560 nM in assay [3] (setting [6]).

Regarding `C=CC(=O)N1CC(N2CCC(n3cc(I)c4cc(Cl)ccc43)C2=O)C1` (stereo not shown) [Example 90], the IC50 is 61100 nM in assay [1] (setting [8]); 4300 nM in assay [1] (setting [4]); 480 nM in assay [1] (setting [9]); more than 100 µM in assay [2] (setting [10]); 16000 nM in assay [3] (setting [11]).

Turning to `C=CC(=O)N1CC(NC(=O)Cn2cc(-c3ccccc3-c3ccccc3)c3cc(Br)cc(C)c32)C1` [Example 62], the IC50 in assay [1] (setting [4]) is 1180 nM; in assay [1] (setting [9]), 250 nM; in assay [2] (setting [10]), more than 33.3 µM; in assay [3] (setting [11]) it was 7060 nM.

Take `C=CC(=O)N1CC(NC(=O)Cn2c(C)c(C(=O)N3CCc4ccccc4[C@H]3C)c3cc(Br)cc(C)c32)C1` (stereo in doubt) [Example 2-2, 2-(5-Bromo-2,7-dimethyl-3-(((1R)-1-methyl-3,4-dihydro-2(1H)-isoquinolinyl)carbonyl)-1H-indol-1-yl)-N-(1-(2-propenoyl)-3-azetidinyl)acetamide|2-(5-bromo-2,7-dimethyl-3-(((1S)-1-methyl-3,4-dihydro-2(1H)-isoquinolinyl)carbonyl)-1H-indol-1-yl)-N-(1-(2-propenoyl)-3-azetidinyl)acetamide]: the IC50 in assay [1] (setting [4]) worked out at 250 nM; in assay [2] (setting [5]), 40.9 µM; in assay [3] (setting [7]), 2280 nM.

On to `C=CC(=O)N1CC(NC(=O)Cn2c(C)c(-c3ccccc3C)c3cc(Cl)ccc32)C1` [Example 121], for which the IC50 was 12400 nM in assay [1] (setting [8]); 1570 nM in assay [1] (setting [4]); 420 nM in assay [1] (setting [9]); more than 100 µM in assay [2] (setting [10]); 31200 nM in assay [3] (setting [11]).

Turning to `C=CC(=O)N1CC(NC(=O)Cn2c(CC)c(C(=O)N3CCN(c4ccc(C#N)cn4)C[C@H]3C)c3cc(Cl)cc(C)c32)C1` [Example 1-3, 2-(5-Chloro-3-(((2R)-4-(5-cyano-2-pyridinyl)-2-methyl-1-piperazinyl)carbonyl)-2-ethyl-7-methyl-1H-indol-1-yl)-N-(1-(2-propenoyl)-3-azetidinyl)acetamide], the IC50 is 150 nM in assay [1] (setting [4]), more than 100 µM in assay [2] (setting [5]) and 1310 nM in assay [3] (setting [6]).

With `C=CC(=O)N1CC(NC(=O)Cn2c(C)c(-c3ccccc3C(C)C)c3cc(Cl)ccc32)C1` [Example 5-3, 2-(5-Chloro-2-methyl-3-(2-(2-propanyl)phenyl)-1H-indol-1-yl)-N-(1-(2-propenoyl)-3-azetidinyl)acetamide], the 50% inhibitory concentration (IC50) in assay [1] (setting [8]) was 4110 nM; in assay [1] (setting [4]), 630 nM; in assay [1] (setting [9]), 220 nM; in assay [2] (setting [10]), more than 33.3 µM; in assay [3] (setting [11]), 2060 nM.
